Results on four molecules are retold here after US20050228052A1, “Methods of treating, preventing and managing a sleep disorder using (S)-didesmethylsibutramine” (priority 2004, published 2005).

For experiment [1], the target named is T1, human recombinant norepinephrine (NE) uptake site (Homo sapiens, UniProt P23975).
T1 construct: expressed in transfected cells
Nature of the experiment: Binding at the norepinephrine (NE) uptake site.

In experiment [2] the target is serotonin (5-HT) uptake site (Rattus norvegicus, UniProt P31652). The following applies: summary of the table data. The method, then: IC50 values (concentration required to inhibit 50% specific binding) were then determined by nonlinear regression analysis of the curves and tabulated below.
The test system of experiment [3] is nonselective muscarinic receptor. Description: Binding at the nonselective muscarinic receptor. On the set-up: species or system rat.

Each structure is given as a SMILES string. Read-outs that look alike come from different tables or passages of the source.

T1 sequence (P23975 whole entry): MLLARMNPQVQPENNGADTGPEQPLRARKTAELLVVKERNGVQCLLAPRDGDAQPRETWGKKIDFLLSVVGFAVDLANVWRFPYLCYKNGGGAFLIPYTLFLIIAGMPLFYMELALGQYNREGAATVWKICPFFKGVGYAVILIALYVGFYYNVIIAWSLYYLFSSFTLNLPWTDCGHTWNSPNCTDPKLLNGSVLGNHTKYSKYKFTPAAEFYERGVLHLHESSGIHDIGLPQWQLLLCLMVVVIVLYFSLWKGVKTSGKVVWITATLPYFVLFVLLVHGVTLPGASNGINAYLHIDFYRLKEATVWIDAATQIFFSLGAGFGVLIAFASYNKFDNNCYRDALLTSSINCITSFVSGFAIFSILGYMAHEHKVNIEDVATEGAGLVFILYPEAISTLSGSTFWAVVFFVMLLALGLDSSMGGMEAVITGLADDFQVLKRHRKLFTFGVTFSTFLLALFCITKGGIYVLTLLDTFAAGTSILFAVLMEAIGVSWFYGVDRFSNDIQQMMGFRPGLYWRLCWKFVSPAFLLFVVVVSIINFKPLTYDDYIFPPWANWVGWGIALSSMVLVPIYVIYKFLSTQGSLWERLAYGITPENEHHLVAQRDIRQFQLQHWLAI
Chain of serotonin (5-HT) uptake site (P31652 whole entry): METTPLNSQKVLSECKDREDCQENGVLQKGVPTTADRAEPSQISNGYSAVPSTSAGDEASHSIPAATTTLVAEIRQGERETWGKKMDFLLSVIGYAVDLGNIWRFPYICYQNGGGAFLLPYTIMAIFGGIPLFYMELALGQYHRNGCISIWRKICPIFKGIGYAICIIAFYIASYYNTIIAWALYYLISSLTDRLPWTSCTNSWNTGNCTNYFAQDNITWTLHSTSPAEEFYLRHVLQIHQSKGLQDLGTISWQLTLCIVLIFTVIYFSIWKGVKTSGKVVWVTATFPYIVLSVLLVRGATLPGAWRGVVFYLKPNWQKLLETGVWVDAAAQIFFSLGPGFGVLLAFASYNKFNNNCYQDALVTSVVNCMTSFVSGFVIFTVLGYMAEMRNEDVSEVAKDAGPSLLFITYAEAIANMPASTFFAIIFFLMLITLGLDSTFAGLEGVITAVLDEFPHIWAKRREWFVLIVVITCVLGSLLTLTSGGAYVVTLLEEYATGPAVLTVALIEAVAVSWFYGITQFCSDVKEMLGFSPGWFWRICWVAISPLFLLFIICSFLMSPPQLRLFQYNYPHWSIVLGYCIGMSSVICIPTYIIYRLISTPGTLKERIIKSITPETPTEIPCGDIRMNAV

As for `CC(C)CC(N)C1(c2ccc(Cl)cc2)CCC1` (racemic) [(R/S)-DDMS], in experiment [1] (human recombinant NE uptake site, single value or first value before slash, read-out: Binding IC50 Values (nM) NE Uptake), the IC50 (usually the midpoint of a concentration-inhibition curve) was found to be 16 nM.
On to `CC(C)C[C@@H](N)C1(c2ccc(Cl)cc2)CCC1` [(R)-DDMS], for which, in experiment [1], the IC50 came to 13 nM.
In the case of `CC(C)C[C@H](N)C1(c2ccc(Cl)cc2)CCC1` [(S)-DDMS, 1-[1-(4-chlorophenyl)cyclobutyl]-3-methyl-butylamine], the “5-HT uptake site binding, result in words” value in experiment [2] is recorded as “without appreciable 5-HT or muscarinic activity”. Also, the IC50 in experiment [1] was 6.2 nM. Moreover, the “NE uptake site binding, result in words” value in experiment [1] (summary of the table data) is “potent inhibitor of NE uptake”. For the same molecule, the “Affinity for the muscarinic site, result in words” value in experiment [3] (summary of the table data) is listed as “without appreciable 5-HT or muscarinic activity”.
`CN1[C@@H]2CC[C@H]1C[C@@H](OC(=O)C(CO)c1ccccc1)C2` (stereo partly shown) [Atropine, reference compound]: in experiment [3] (rat cerebral cortex, inhibition of specific binding, competition curves, read-out: Binding IC50 Values (nM) Mucarinic Receptor), the IC50 stood at 0.31 nM.
